# Reference: PubChem BioAssay (NCI)
# Values joined by “and” are separate entries in the source; they are usually repeats but may differ in a detail not shown here. Equal values may be shown once.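 All cell lines were grown in 96-well plates and treated with compound for 48 hours. Abbreviation: GI50, concentration required for 50% inhibition of growth. TGI denotes the concentration required for complete inhibition of growth.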 *1 amine or outer side, *2 acyl side, *3 side chain or, on linkers, in order; H or OH if unused. Where a SMILES comes first, the peptide text is derived from it. Bridges are numbered along the chain shown (N, C = ends). [ ]: non-standard residue; d: D form. ξ: configuration not given here. X4 = CCC(C)C(N[*:1])C(O)CC(=O)O[C@H](C(=O)C(C)C(=O)[*:2])C(C)C; NMeY = CN[C@@H](Cc1ccc(O)cc1)C(=O)O; X9 = O=C([C@@H]1CC(O)CN1[*:1])[*:2]; ξNMeL = CNC(CC(C)C)C(=O)O; ξT = CC(O)C(N)C(=O)O
# Legend:
# Experiment in all cases: inhibition of tumour cell growth, NCI panel, 48 h
# MDA-MB-231 breast = test system: MDA-MB-231 breast
# HT29 colon = test system: HT29 colon
# 786-0 renal = test system: 786-0 renal
# NCI/ADR-RES ovarian = test system: NCI/ADR-RES ovarian
# IGROV1 ovarian = test system: IGROV1 ovarian
# MOLT-4 leukemia = test system: MOLT-4 leukemia
# CAKI-1 renal = test system: CAKI-1 renal
# SF-295 CNS = test system: SF-295 CNS
# SW-620 colon = test system: SW-620 colon
# A549 NSCLC = test system: A549 NSCLC
Structure (SMILES),GI50 (MDA-MB-231 breast) [µM],TGI (MDA-MB-231 breast),GI50 (HT29 colon) [µM],TGI (HT29 colon),GI50 (786-0 renal) [µM],TGI (786-0 renal),GI50 (NCI/ADR-RES ovarian) [µM],TGI (NCI/ADR-RES ovarian),GI50 (IGROV1 ovarian) [µM],TGI (IGROV1 ovarian),GI50 (MOLT-4 leukemia) [µM],TGI (MOLT-4 leukemia),GI50 (CAKI-1 renal),TGI (CAKI-1 renal),GI50 (SF-295 CNS) [µM],TGI (SF-295 CNS),GI50 (SW-620 colon) [µM],TGI (SW-620 colon),GI50 (A549 NSCLC) [µM],TGI (A549 NSCLC)
O=[N+]([O-])c1cccc(-c2nc3sccn3c2-c2ccnc(NCCCNS(=O)(=O)c3ccc(F)cc3)n2)c1,4.98,> 100 µM,2.9,> 100 µM,7.39,> 100 µM,1.85,7.31 µM,2.9,26.8 µM,1.23,5.52 µM,2.33 µM,> 100 µM,2.62,8.15 µM,3.95,> 100 µM,2.73,> 100 µM
N#Cc1nc(-c2cccc(Br)c2)cc(-c2ccc(Nc3nc(N4CCCCC4)nc(N4CCCCC4)n3)cc2)c1N,1.56,3.21 µM,1.22,4.09 µM,3.29,> 100 µM,3.33,> 100 µM,,,1.1,> 100 µM,1.93 µM,5.03 µM,2.72,8.81 µM,1.53,3.48 µM,3.68,> 100 µM
CC1(C)CCSC(/C=C/c2ccccc2)=N1,,30.6 µM,,33.1 µM,,25.6 µM,,38.2 µM,,37.8 µM,,> 100 µM,,32.3 µM,,40.7 µM,,38.6 µM,,> 100 µM
O=C(Oc1ccccc1)c1cc(O)c(O)c(O)c1,26.2,> 100 µM,30,> 100 µM,11.2,50 µM,11.4,56.7 µM,11.6,> 100 µM,2.23,26.2 µM,15.4 µM,> 100 µM,17.9,83.7 µM,14.3,> 100 µM,9.64,> 100 µM
COc1cc2c(/C=C3/C(=O)Nc4ccccc43)c(Cl)n(Cc3ccccc3)c2cc1C,> 100,> 100 µM,,,> 100,> 100 µM,> 100,> 100 µM,> 100,> 100 µM,6.05,> 100 µM,> 100 µM,> 100 µM,> 100,> 100 µM,> 100,> 100 µM,> 100,> 100 µM
O=C1C(NCCO)=C(N2CC2)C(=O)C(NCCO)=C1N1CC1,,> 100 µM,,> 81.8 µM,,> 60.9 µM,,> 100 µM,,> 100 µM,,58.5 µM,,> 100 µM,,64.6 µM,,> 83.3 µM,,> 100 µM
OCCNc1nc(NCCO)nc(Nc2ccc(C3=NN(c4cc(Cl)cc(Cl)c4)C(c4ccc(Cl)cc4)C3)cc2)n1 (stereo not drawn),1.71,3.42 µM,,,1.64,3.28 µM,2.6,7.08 µM,2.48,5.68 µM,1.52,4.02 µM,,,1.47,2.85 µM,2.03,4.52 µM,1.96,4.45 µM
CCC(C)C1NC(=O)C(NC(=O)C(CC(C)C)N(C)C(=O)[C@@H]2CC(O)CN2)C(C)OC(=O)[C@H](Cc2ccc(OC)cc2)N(C)C(=O)[C@@H]2CCCN2C(=O)[C@H](CC(C)C)NC(=O)C(C)C(=O)[C@H](C(C)C)OC(=O)CC1O (stereo partly drawn) (H-[X9][ξNMeL][ξT][X4]LP[NMeY](Me); ester 3-C),0.0369,,,1.18 µM and 0.159 µM,0.0162,0.149 µM and 1.25 µM,4.46,> 100 µM,,0.107 µM and 0.141 µM,,0.0426 µM and 0.0387 µM,0.151 µM,2.65 µM,0.0166,0.286 µM and 0.304 µM,,0.287 µM and 0.294 µM,,2.02 µM and 1 µM
COc1nccc(-c2c(-c3ccc(F)cc3)ncn2C2CCC(O)CC2)n1 (stereo not drawn),> 100,> 100 µM,42.6,> 100 µM,> 100,> 100 µM,> 100,> 100 µM,22.2,> 100 µM,> 95.3,> 100 µM,25.2 µM,> 100 µM,> 100,> 100 µM,> 70.8,> 100 µM,32.4,> 100 µM
CCCCCCN1C(=O)/C(=c2\sc3n(c2=O)C2C(NN=3)N(CC)C(=O)N2CC)c2ccccc21 (stereo not drawn),1.77,10.4 µM,1.5,> 50 µM,1.6,> 50 µM,,,1.63,> 50 µM,3.96,> 50 µM,1.82 µM,> 50 µM,1.45,> 50 µM,,,1.47,> 50 µM
COc1ncnc2c(NC3OC(CO)C(O)C3O)ncnc12 (stereo not drawn),,1.54 µM,,> 32 µM,,14 µM,,6.2 µM,,3.82 µM,,1.94 µM,,6.3 µM,,22.6 µM,,13.2 µM,,
Cc1c(C(=O)/C=C/c2ccc(O)cc2)nnn1-c1ccnc2c(C(F)(F)F)cccc12,21.7,> 100 µM,3.36,30.1 µM,> 100,> 100 µM,13.9,> 100 µM,21.9,> 100 µM,5.06,30.6 µM,28.6 µM,> 100 µM,25.8,> 100 µM,27.1,> 100 µM,8.55,> 100 µM
CCCCCCC(C)CC(CCCCCC)NCCOC(=O)c1ccc([N+](=O)[O-])cc1 (stereo not drawn),,23.5 µM and 20.9 µM,,21.4 µM and 19 µM,,33.7 µM and 33.5 µM,,58.8 µM and 32.1 µM,,27 µM and 25.1 µM,,,12.2 µM and 4.21 µM,25.3 µM and 18.4 µM,,25.3 µM and 31.3 µM,,28.8 µM and 28.5 µM,,30.3 µM and 29.8 µM
N#Cc1c(NC(=O)c2cccs2)[n+]([O-])c2ccccc2[n+]1[O-],> 100,> 100 µM,> 100,> 100 µM,> 100,> 100 µM,> 100,> 100 µM,,,> 100,> 100 µM,> 100 µM,> 100 µM,> 100,> 100 µM,> 100,> 100 µM,> 100,> 100 µM
O=C(CNC(=O)c1cccc2ccccc12)Nc1ccccc1Oc1cccc(O)c1,17.6,> 25 µM,21.4,> 25 µM,9.93,> 25 µM,7.94,> 25 µM,9.96,> 25 µM,4.84,> 25 µM,,,2.2,> 25 µM,3.12,> 25 µM,9.64,> 25 µM
CCOC(=O)C1CCC/C1=N\N=C(N)N (stereo not drawn) (tested in a mixture with another compound),,> 100 µM,,> 100 µM,,> 100 µM,,> 100 µM,,> 100 µM,,> 100 µM,,,,> 100 µM,,> 100 µM,,> 100 µM
CCCCCCCCCCCCCCCCC(C(=O)O)C(O)(CC(=O)O)C(=O)O (stereo not drawn),,75.8 µM,,45.4 µM,,> 100 µM,,> 100 µM,,46.4 µM,,61.6 µM,,46.3 µM,,35.5 µM,,46.6 µM,,
CCCCCCn1c(-c2ccc(C(=O)O/N=C(\N)c3ccc(OC)cc3)cc2)nc(-c2ccccc2)c1-c1ccccc1,1.61,3.69 µM,2.67,> 100 µM,0.276,0.833 µM,1.18,3.41 µM,0.295,0.869 µM,1.41,4.08 µM,0.997 µM,2.19 µM,1.61,3.07 µM,,,0.777,3.36 µM
CC1C(=O)N=C2C(=CN(Cc3ccccc3)c3ccccc32)C(=O)N1C (stereo not drawn),,> 100 µM,,> 100 µM,,> 100 µM,,> 100 µM,,> 100 µM,,,,> 100 µM,,,,> 100 µM,,> 100 µM
CC1CCC2(OC1)OC1CC3C4CC=C5CC(OC6OC(CO)C(OC7OC(C)C(OC8OC(C)C(O)C(O)C8O)C(O)C7O)C(O)C6OC6OC(C)C(O)C(O)C6O)CCC5(C)C4CCC3(C)C1C2C (stereo not drawn),,1.33 µM,,2.2 µM,,2.29 µM,,,,2.59 µM,,0.958 µM,,2.55 µM,,1.59 µM,,2.89 µM,,1.39 µM
CNC(=O)c1cc(Oc2ccc3nc(NC(=O)Nc4ccc(Cl)c(Cl)c4)sc3c2)ccn1,2.15,6.43 µM,,,2.26,5.11 µM,2.3,5.09 µM,2.55,6.75 µM,> 100,> 100 µM,2.46 µM,6.3 µM,1.53,3.13 µM,8.11,> 100 µM,,
CC1(C)OC2C(CO)OC(n3ccc(=O)[nH]c3=O)C2O1 (stereo not drawn),,> 100 µM,,,,> 100 µM,,> 100 µM,,> 100 µM,,> 100 µM,,> 100 µM,,> 100 µM,,> 100 µM,,> 100 µM
O=C(O)CC(Cc1ccc2c(c1)OCO2)C(=O)O (stereo not drawn),,> 100 µM,,> 100 µM,,> 100 µM,,> 100 µM,,> 100 µM,,> 100 µM,,,,> 100 µM,,> 100 µM,,> 100 µM
COc1n[n+]([O-])c(C)cc1[N+](=O)[O-],19.5,42.2 µM,,,8.4,21.7 µM,19.1,43.7 µM,12.1,24.8 µM,10.7,35.1 µM,4.84 µM,19.1 µM,11.3,28.5 µM,15.7,39.6 µM,5.5,24.6 µM
c1ccc(-c2nc(Nc3ccc(-c4nc5ccccc5[nH]4)cc3)nc(N3CCOCC3)n2)cc1,1.29,3.48 µM,0.646,2.19 µM,0.257,1.25 µM,1.93,5.53 µM,,,1.33,3.53 µM,1.28 µM,2.54 µM,1.25,2.84 µM,0.627,2.17 µM,1.95,4.01 µM
COc1ccc(C2=NNC(c3ccc(-c4ccc(OC)cc4[N+](=O)[O-])o3)C2)cc1 (stereo not drawn),1.89,43.6 µM,44.9,> 100 µM,48.8,> 100 µM,17.9,59.9 µM,59.9,> 100 µM,31,> 100 µM,,,29.5,> 100 µM,78.2,> 100 µM,39.5,> 100 µM
O=S(=O)(O)C(F)(F)C(F)(F)C(F)(F)C(F)(F)F,,,,> 100 µM,,> 100 µM,,,,> 100 µM,,> 100 µM,,> 100 µM,,> 100 µM,,> 100 µM,,> 100 µM
Cc1cc2c(C(C)C)c(O)c(O)c3coc(/c1=c1/c(C)cc4c(C(C)C)c(=O)c(=O)c5coc1c45)c32,,,,14.4 µM,,22.1 µM,,,,15.1 µM,,17.4 µM,,26.9 µM,,16.2 µM,,17.4 µM,,15.6 µM
COc1ccc(-c2ccc(/C=N/n3cn[nH]c3=S)o2)c([N+](=O)[O-])c1,,,32.6,> 100 µM,66.2,> 100 µM,30.5,94 µM,39.6,> 100 µM,16.3,50.8 µM,32.6 µM,> 100 µM,36,> 100 µM,29.8,> 100 µM,36.2,> 100 µM
COc1ccc(Cl)cc1N1C(=O)C(Cl)=C(Nc2cccc(O)c2)C1=O,,,19.9,59.9 µM,21.1,60.2 µM,27.2,95.4 µM,,,15.4,49.4 µM,19.2 µM,55.2 µM,17.1,82.9 µM,27.4,63 µM,20.1,59.2 µM
